Measured values: patent publication US6420455B1, “Antimicrobial composition containing photosensitizers articles, and methods of use” (3M Innovative Properties Company, priority 1999, dated 2002)

Tests used:
Assay in all cases: Zone of inhibition of dye-dipped filter disks on agar lawn
E. coli = format: cell-based, Escherichia coli; details: for Zone of Inhibition in Dark: 10 mg/ml dye on 6-mm disk
Experimental: (§1) The procedure used for testing for antibacterial and antifungal activity is as follows.
(§2) Bacteria or fungi stock was plated onto Trypticase Soy Broth (TSB) agar (Becton Dickinson, Cockeysville, Md.) and incubated at 37° C. overnight, at which time several colonies were transferred to phosphate buffered saline (PBS) to give a solution with final concentration of 10^6 bacteria/ml or fungi/ml, as determined by comparison of turbidity with McFarland standards. Subsequently, a lawn of the bacterium or fungus was prepared by triple swabbing a Trypticase Soy broth agar plate (prepared using TSB and agar according to label instructions). Then, 6-mm diameter paper filter disks were dipped into one of the dyed solutions, blotted to remove the excess solution, and placed on the agar plates. Each plate was then either kept in the dark (control) or irradiated for 15 minutes in room light or for overnight in room light before incubation at 37° C. for 24 hours.
(§3) The plates were removed from the incubator and inspected for clear areas surrounding treated 6-mm filter disks that are indicative of prevention of growth of bacteria. The diameter of each clear area was measured and recorded and compared with controls.

Salmonella spp. = format: cell-based; details: for Zone of Inhibition in Dark: 10 mg/ml dye on 6-mm disk
Experimental: as §1, §2, §3

C. albicans = format: cell-based, Candida albicans; details: for Zone of Inhibition in Dark: 10 mg/ml dye on 6-mm disk
Experimental: as §1, §2, §3

P. aeruginosa = format: cell-based, Pseudomonas aeruginosa; details: for Zone of Inhibition in Dark: 10 mg/ml dye on 6-mm disk
Experimental: as §1, §2, §3

Staph. Aureus = format: cell-based, Staphylococcus aureus; details: for Zone of Inhibition in Dark: 10 mg/ml dye in water on 6-mm disk; for Zone of Inhibition in Room Light, 15 Minutes / Zone of Inhibition in Room Light Overnight / Zone of Inhibition in Room Light (after 30 min.): 10 mg/ml dye on 6-mm disk
Experimental: as §1
as §2, with “Each plate was then either kept in the dark (control) or irradiated for 15 minutes in room light or for overnight in room light before incubation at 37° C. for 24 hours.” left out
as §3

E. faecium = format: cell-based, Enterococcus faecium; details: for Zone of Inhibition in Dark: 10 mg/ml dye on 6-mm disk
Experimental: as §1, §2, §3

SMILES	Zone of Inhibition in Dark (E. coli) [mm]	Zone of Inhibition in Room Light, 15 Minutes (E. coli) [mm]	Zone of Inhibition in Room Light Overnight (E. coli) [mm]	Zone of Inhibition in Dark (Salmonella spp.) [mm]	Zone of Inhibition in Room Light, 15 Minutes (Salmonella spp.) [mm]	Zone of Inhibition in Room Light Overnight (Salmonella spp.) [mm]	Zone of Inhibition in Dark (C. albicans) [mm]	Zone of Inhibition in Room Light, 15 Minutes (C. albicans) [mm]	Zone of Inhibition in Room Light Overnight (C. albicans) [mm]	Zone of Inhibition in Dark (P. aeruginosa) [mm]	Zone of Inhibition in Room Light, 15 Minutes (P. aeruginosa) [mm]	Zone of Inhibition in Room Light Overnight (P. aeruginosa) [mm]	Zone of Inhibition in Dark (Staph. Aureus) [mm]	Zone of Inhibition in Room Light, 15 Minutes (Staph. Aureus) [mm]	Zone of Inhibition in Room Light Overnight (Staph. Aureus) [mm]	Zone of Inhibition in Dark (E. faecium) [mm]	Zone of Inhibition in Room Light, 15 Minutes (E. faecium) [mm]	Zone of Inhibition in Room Light Overnight (E. faecium) [mm]	Zone of Inhibition in Room Light (after 30 min.) (Staph. Aureus) [mm]
CN(C)c1ccc2nc3ccc(=[N+](C)C)cc-3sc2c1 [Methylene Blue]	8	0	0	0	0	0	12	12	18	0	0	0	18	20	28	16	16	19	–
CN(C)c1ccc(C(=C2C=CC(=[N+](C)C)C=C2)c2ccc(N(C)C)cc2)cc1 [Crystal Violet]	–	–	–	–	–	–	–	–	–	–	–	–	30	–	–	–	–	–	30
Cc1cc2nc3ccc(N(C)C)cc3[s+]c2cc1N.[Cl-] [Toluidine Blue O]	–	–	–	–	–	–	–	–	–	–	–	–	20	–	–	–	–	–	19
O=C([O-])c1c(Cl)c(Cl)c(Cl)c(Cl)c1-c1c2cc(I)c(=O)c(I)c-2oc2c(I)c([O-])c(I)cc12.[Na+].[Na+] [Rose Bengal disodium salt]	0	0	11	7	8	19	0	0	13	0	0	13	23	21	36	19	19	34	–
